From patent publication US9546393B2, “Mass spectrometry quantitation of P450 isoforms in hepatocytes” (DH Technologies Development Pte. Ltd., priority 2009, dated 2017) come the findings set out here.

One data set concerns CYP 2B6. The experiment in a line: CYP 2B6 induction in treated primary human hepatocytes (RNA assay, enzyme activity assay, LC-MSMS protein assay; FIG. 6). It is filed as cell-based. The following applies: 72 hours, 3-MC 2 μM. The method, then:
Flow rate was 700 μL/min.
The PB is a prototypical inducer for CYP 2B6, by CAR nuclear receptor activation.

The subject of data set [1] is CYP 1A2. Briefly: RNA assay (mRNA by qRT-PCR, Taqman) for CYP 1A2 in treated human hepatocytes. The format is cell-based. The following applies: primary human hepatocytes, 72 hours; 3-MC 2 μM; FIG. 7. Background: In qPCR the cycle at which signal appears reflects the starting amount.
Another data set concerns CYP 3A4. The experiment in a line: CYP 3A4 induction in treated primary human hepatocytes (RNA assay, enzyme activity assay, LC-MSMS protein assay; FIG. 8). The following applies: 72 hours, 3-MC 2 μM, PB 1 mM.
Data set [2] has as its system CYP 1A2. The following applies: primary human hepatocytes, 72 hours; PB 1 mM, RIF 10 μM; FIG. 7.

Turning to `Cc1ccc2cc3c(ccc4ccccc43)c3c2c1CC3` [3-MC, 3-methylcholanthrene], the “changes in expression of CYP 2B6 (induction)” value in the data set with CYP 2B6 is reported as “induces basal levels”. Also, the “CYP 1A2 RNA level in RNA assay” value in the data set with CYP 1A2 [1] was “very high levels of RNA”. The “changes in expression of CYP 3A4 (induction)” value in the data set on CYP 3A4 is “minimally induces”.
Take `CCC1(c2ccccc2)C(=O)NC(=O)NC1=O` [PB, phenobarbital]: the “changes in expression of CYP 1A2 (induction)” value with CYP 1A2 [2] is listed as “basal levels of 1A2, if any”. In addition, the “changes in expression of CYP 3A4 (induction)” value with CYP 3A4 is “significantly induces”.
